Assay results from ChEMBL document CHEMBL4507259 (2021).

How the values were obtained:
[1] = molecular target: Urotensin-2 receptor (Homo sapiens) (UniProt Q9UKP6); assay: UT (h) CEREP ligand profiling; settings: filed as agonist, Compound concentration 10.0 uM
[2] = molecular target: Motilin receptor (Homo sapiens) (UniProt O43193); assay: motilin (h) CEREP ligand profiling; settings: filed as agonist, Compound concentration 10.0 uM
[3] = molecular target: T1, Muscarinic acetylcholine receptor M2 (Homo sapiens) (UniProt P08172); assay: M2 (h) CEREP ligand profiling; settings: filed as antagonist, Compound concentration 10.0 uM
T1 sequence (whole entry): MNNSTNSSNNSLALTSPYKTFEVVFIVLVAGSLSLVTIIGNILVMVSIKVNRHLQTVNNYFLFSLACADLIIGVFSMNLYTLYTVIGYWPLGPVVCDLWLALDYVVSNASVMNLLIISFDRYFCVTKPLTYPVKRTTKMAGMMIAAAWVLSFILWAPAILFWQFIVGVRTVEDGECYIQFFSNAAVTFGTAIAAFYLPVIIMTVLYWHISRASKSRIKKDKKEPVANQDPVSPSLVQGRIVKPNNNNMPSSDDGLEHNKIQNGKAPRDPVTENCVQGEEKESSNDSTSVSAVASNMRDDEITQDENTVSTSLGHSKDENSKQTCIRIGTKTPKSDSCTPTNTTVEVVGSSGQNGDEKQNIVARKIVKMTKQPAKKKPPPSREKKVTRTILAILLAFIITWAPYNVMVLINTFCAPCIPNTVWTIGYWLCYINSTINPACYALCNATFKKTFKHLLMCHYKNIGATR

[4] = molecular target: 5-hydroxytryptamine receptor 1B (Homo sapiens) (UniProt P28222); assay: 5-HT1B CEREP ligand profiling; settings: filed as antagonist; Compound concentration 10.0 uM
[5] = test system: Tyrosine-protein kinase ABL1 (Homo sapiens), P00519 [F317I]; settings: Compound concentration 1000.0 nM
[6] = molecular target: Protein-tyrosine kinase 6 (Homo sapiens) (UniProt Q13882); settings: Compound concentration 1000.0 nM
[7] = molecular target: Cyclin-dependent kinase-like 2 (Homo sapiens) (UniProt Q92772); settings: Compound concentration 1000.0 nM
[8] = molecular target: Casein kinase I isoform alpha-like (Homo sapiens) (UniProt Q8N752); settings: Compound concentration 1000.0 nM
[9] = molecular target: Casein kinase I isoform gamma-2 (Homo sapiens) (UniProt P78368); settings: Compound concentration 1000.0 nM
[10] = molecular target: Megakaryocyte-associated tyrosine-protein kinase (Homo sapiens) (UniProt P42679); settings: Compound concentration 1000.0 nM
[11] = test system: Epidermal growth factor receptor (Homo sapiens), P00533 [G719S]; settings: Compound concentration 1000.0 nM
[12] = test system: Epidermal growth factor receptor (Homo sapiens), P00533 [L861Q]; settings: Compound concentration 1000.0 nM
[13] = molecular target: Ephrin type-A receptor 4 (Homo sapiens) (UniProt P54764); settings: Compound concentration 1000.0 nM
[14] = molecular target: Ephrin type-B receptor 6 (Homo sapiens) (UniProt O15197); settings: Compound concentration 1000.0 nM
[15] = molecular target: Fibroblast growth factor receptor 3 (Homo sapiens) (UniProt P22607); settings: Compound concentration 1000.0 nM
[16] = molecular target: Fibroblast growth factor receptor 4 (Homo sapiens) (UniProt P22455); settings: Compound concentration 1000.0 nM
[17] = test system: Receptor-type tyrosine-protein kinase FLT3 (Homo sapiens), P36888 [D835Y]; settings: Compound concentration 1000.0 nM
[18] = test system: Receptor-type tyrosine-protein kinase FLT3 (Homo sapiens), P36888 [UNDEFINED MUTATION]; settings: Compound concentration 1000.0 nM
[19] = molecular target: Cyclin-G-associated kinase (Homo sapiens) (UniProt O14976); settings: Compound concentration 1000.0 nM
[20] = molecular target: Homeodomain-interacting protein kinase 2 (Homo sapiens) (UniProt Q9H2X6); settings: Compound concentration 1000.0 nM
[21] = molecular target: Hormonally up-regulated neu tumor-associated kinase (Homo sapiens) (UniProt P57058); settings: Compound concentration 1000.0 nM
[22] = molecular target: Mitogen-activated protein kinase 10 (Homo sapiens) (UniProt P53779); settings: Compound concentration 1000.0 nM
[23] = molecular target: Tyrosine-protein kinase Mer (Homo sapiens) (UniProt Q12866); settings: Compound concentration 1000.0 nM
[24] = molecular target: Serine/threonine-protein kinase Nek4 (Homo sapiens) (UniProt P51957); settings: Compound concentration 1000.0 nM
[25] = molecular target: Serine/threonine-protein kinase PAK 1 (Homo sapiens) (UniProt Q13153); settings: Compound concentration 1000.0 nM
[26] = molecular target: Platelet-derived growth factor receptor beta (Homo sapiens) (UniProt P09619); settings: Compound concentration 1000.0 nM
[27] = molecular target: Serine/threonine-protein kinase PLK2 (Homo sapiens) (UniProt Q9NYY3); settings: Compound concentration 1000.0 nM
[28] = molecular target: Protein kinase C theta type (Homo sapiens) (UniProt Q04759); settings: Compound concentration 1000.0 nM
[29] = molecular target: cGMP-dependent protein kinase 1 (Homo sapiens) (UniProt Q13976); settings: Compound concentration 1000.0 nM
[30] = molecular target: Interferon-induced, double-stranded RNA-activated protein kinase (Homo sapiens) (UniProt P19525); settings: Compound concentration 1000.0 nM
[31] = molecular target: Serine/threonine-protein kinase PRP4 homolog (Homo sapiens) (UniProt Q13523); settings: Compound concentration 1000.0 nM
[32] = molecular target: Serine/threonine-protein kinase SBK1 (Homo sapiens) (UniProt Q52WX2); settings: Compound concentration 1000.0 nM
[33] = molecular target: Serine/threonine-protein kinase 16 (Homo sapiens) (UniProt O75716); settings: Compound concentration 1000.0 nM
[34] = molecular target: Serine/threonine-protein kinase tousled-like 1 (Homo sapiens) (UniProt Q9UKI8); settings: Compound concentration 1000.0 nM
[35] = molecular target: Testis-specific serine/threonine-protein kinase 3 (Homo sapiens) (UniProt Q96PN8); settings: Compound concentration 1000.0 nM
[36] = molecular target: Dual specificity protein kinase TTK (Homo sapiens) (UniProt P33981); settings: Compound concentration 1000.0 nM
[37] = molecular target: Tyrosine-protein kinase receptor TYRO3 (Homo sapiens) (UniProt Q06418); settings: Compound concentration 1000.0 nM
D(3) dopamine receptor = D(3) dopamine receptor (Homo sapiens, UniProt P35462); settings: Compound concentration 10.0 uM
[38] = molecular target: Sodium-dependent dopamine transporter (Homo sapiens, UniProt Q01959); settings: Compound concentration 10.0 uM

Chain of Protein kinase C theta type (Homo sapiens) (Q04759 whole entry, looked up): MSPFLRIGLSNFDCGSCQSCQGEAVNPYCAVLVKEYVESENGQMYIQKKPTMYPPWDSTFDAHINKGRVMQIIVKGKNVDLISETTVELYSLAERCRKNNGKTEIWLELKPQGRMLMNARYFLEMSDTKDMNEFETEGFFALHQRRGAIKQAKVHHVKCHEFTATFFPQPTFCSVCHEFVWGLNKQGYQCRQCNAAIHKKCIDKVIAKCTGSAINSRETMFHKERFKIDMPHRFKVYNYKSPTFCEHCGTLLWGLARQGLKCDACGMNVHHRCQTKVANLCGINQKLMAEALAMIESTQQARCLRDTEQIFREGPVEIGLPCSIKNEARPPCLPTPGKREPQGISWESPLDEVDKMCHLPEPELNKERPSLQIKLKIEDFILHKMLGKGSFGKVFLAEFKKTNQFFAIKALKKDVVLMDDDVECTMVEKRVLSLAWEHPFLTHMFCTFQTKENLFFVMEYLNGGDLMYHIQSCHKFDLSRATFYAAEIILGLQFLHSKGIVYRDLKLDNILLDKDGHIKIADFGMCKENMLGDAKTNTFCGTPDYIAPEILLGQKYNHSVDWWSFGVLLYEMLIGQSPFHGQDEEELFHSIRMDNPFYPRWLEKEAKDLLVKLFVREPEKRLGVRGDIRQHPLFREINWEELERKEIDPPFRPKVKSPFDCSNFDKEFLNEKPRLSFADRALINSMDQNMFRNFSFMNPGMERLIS
Chain of Interferon-induced, double-stranded RNA-activated protein kinase (Homo sapiens) (P19525 whole entry): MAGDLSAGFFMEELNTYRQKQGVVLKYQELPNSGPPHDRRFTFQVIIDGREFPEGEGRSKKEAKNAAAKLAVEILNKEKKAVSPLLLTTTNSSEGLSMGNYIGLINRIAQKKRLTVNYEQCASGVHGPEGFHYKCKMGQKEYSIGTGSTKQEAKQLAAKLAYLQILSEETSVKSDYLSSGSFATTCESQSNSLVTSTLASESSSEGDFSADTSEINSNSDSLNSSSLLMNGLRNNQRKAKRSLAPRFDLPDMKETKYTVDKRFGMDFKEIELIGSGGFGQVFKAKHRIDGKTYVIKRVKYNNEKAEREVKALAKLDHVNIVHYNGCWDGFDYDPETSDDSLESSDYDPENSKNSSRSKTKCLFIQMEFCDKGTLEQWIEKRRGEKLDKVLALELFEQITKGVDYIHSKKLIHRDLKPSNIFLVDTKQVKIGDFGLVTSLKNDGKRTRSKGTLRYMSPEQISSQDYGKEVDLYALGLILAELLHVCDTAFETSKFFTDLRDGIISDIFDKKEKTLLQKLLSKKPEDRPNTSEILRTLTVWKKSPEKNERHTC
Chain of Casein kinase I isoform alpha-like (Homo sapiens) (Q8N752 whole entry, canonical isoform): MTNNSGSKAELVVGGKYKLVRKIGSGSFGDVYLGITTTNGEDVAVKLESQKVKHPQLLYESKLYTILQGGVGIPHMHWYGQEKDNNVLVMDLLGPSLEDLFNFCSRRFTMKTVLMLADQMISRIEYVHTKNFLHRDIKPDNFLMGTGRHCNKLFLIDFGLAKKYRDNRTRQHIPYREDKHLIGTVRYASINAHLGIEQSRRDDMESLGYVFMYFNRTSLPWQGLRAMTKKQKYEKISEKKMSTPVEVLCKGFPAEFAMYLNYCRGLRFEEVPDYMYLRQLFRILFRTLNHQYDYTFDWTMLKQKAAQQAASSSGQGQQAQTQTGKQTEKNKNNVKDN
Chain of Hormonally up-regulated neu tumor-associated kinase (Homo sapiens) (P57058 whole entry): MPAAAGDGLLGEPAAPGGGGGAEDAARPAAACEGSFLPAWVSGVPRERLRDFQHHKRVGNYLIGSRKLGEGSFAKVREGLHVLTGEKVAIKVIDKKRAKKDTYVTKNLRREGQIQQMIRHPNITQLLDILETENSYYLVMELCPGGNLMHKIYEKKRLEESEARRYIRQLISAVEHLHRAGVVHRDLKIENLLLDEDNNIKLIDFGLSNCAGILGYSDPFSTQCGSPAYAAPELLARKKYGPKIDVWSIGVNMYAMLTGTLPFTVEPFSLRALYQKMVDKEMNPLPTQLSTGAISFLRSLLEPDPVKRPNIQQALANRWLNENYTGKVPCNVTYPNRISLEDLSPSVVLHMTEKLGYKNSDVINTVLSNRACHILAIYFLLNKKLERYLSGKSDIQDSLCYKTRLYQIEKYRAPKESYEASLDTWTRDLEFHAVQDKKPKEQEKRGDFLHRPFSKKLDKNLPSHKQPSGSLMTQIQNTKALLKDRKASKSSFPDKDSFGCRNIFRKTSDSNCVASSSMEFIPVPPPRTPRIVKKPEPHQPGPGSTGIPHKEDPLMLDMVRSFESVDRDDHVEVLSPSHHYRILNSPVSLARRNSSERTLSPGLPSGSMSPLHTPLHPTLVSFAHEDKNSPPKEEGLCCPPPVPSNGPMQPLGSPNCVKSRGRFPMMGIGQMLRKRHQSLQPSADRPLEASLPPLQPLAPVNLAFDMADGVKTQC
Chain of Tyrosine-protein kinase receptor TYRO3 (Homo sapiens) (Q06418 whole entry): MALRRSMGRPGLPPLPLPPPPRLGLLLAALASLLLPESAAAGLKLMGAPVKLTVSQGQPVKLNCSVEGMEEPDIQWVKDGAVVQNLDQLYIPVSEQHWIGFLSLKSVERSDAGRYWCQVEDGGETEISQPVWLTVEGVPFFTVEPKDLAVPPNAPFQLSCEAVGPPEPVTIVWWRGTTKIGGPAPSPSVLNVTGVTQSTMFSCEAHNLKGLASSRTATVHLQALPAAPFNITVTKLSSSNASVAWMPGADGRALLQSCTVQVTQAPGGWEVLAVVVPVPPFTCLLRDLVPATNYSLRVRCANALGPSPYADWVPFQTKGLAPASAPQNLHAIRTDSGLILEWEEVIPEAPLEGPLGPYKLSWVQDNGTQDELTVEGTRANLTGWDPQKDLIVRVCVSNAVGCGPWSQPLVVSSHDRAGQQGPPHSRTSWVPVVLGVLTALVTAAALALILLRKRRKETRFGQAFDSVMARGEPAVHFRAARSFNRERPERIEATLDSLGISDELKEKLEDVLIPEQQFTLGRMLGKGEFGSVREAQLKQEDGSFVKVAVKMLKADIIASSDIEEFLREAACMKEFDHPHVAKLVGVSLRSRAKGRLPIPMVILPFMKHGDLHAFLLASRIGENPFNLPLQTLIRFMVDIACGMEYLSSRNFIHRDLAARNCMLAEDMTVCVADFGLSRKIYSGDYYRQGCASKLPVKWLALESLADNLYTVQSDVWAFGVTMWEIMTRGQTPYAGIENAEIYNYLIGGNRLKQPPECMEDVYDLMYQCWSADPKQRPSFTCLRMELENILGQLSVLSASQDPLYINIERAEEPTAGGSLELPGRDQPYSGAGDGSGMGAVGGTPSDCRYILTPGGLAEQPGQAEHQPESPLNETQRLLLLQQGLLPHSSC
Chain of Megakaryocyte-associated tyrosine-protein kinase (Homo sapiens) (P42679 whole entry): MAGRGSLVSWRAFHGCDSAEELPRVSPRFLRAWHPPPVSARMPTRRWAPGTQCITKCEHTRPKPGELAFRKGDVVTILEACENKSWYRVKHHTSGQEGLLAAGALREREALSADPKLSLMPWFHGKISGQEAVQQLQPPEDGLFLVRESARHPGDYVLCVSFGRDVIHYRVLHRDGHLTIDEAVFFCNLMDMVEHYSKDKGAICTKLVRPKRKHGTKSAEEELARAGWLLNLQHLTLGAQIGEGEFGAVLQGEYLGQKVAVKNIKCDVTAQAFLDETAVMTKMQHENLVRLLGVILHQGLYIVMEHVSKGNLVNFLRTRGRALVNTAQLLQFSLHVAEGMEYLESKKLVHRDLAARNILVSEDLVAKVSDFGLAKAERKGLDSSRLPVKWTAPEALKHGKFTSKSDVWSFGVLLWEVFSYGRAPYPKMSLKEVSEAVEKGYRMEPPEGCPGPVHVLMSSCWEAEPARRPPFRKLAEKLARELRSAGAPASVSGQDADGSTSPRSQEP
Chain of Ephrin type-A receptor 4 (Homo sapiens) (P54764 whole entry): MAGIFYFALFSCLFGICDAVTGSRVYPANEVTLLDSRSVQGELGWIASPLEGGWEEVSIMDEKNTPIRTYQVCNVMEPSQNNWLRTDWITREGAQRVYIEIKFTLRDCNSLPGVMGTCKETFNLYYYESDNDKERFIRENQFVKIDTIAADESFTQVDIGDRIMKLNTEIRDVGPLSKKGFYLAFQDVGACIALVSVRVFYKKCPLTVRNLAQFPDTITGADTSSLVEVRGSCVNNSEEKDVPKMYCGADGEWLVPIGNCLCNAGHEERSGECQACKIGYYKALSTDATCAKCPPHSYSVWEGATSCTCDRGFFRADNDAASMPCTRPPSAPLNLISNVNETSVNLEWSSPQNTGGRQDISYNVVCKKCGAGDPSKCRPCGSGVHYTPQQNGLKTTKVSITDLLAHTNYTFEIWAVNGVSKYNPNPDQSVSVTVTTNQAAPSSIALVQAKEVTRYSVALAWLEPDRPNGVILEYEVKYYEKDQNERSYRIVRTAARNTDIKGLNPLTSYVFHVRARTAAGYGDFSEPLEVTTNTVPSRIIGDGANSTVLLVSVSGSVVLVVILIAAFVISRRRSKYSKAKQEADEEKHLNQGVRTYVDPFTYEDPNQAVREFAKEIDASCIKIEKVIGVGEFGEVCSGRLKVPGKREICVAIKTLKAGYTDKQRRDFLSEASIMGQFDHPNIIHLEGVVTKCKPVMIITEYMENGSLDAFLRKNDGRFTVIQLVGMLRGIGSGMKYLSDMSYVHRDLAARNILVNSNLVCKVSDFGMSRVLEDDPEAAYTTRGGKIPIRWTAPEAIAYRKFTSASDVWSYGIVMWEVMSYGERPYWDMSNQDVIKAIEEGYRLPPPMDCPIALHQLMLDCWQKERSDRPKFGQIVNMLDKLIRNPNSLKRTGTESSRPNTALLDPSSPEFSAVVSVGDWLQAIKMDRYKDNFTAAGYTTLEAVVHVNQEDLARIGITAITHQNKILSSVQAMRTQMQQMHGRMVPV
Chain of Serine/threonine-protein kinase 16 (Homo sapiens) (O75716 whole entry): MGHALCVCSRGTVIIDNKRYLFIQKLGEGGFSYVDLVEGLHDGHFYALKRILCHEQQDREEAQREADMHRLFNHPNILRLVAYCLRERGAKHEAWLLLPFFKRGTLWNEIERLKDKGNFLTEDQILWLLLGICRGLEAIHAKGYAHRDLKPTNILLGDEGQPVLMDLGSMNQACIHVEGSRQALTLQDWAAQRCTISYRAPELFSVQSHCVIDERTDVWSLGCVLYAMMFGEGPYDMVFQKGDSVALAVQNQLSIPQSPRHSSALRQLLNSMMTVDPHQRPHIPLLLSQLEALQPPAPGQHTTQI

## CNC(=O)Nc1ccc2c(c1)CC[C@@]21OC(=O)N(CC(=O)N(Cc2ccc(F)cc2)[C@@H](C)C(F)(F)F)C1=O [A-485]
[1]
  inhibition: 6%
[2]
  inhibition: -4%
[3]
  inhibition: -5%
[4]
  inhibition: -6%
[5]
  residual activity: 71%
[6]
  residual activity: 87%
[7]
  residual activity: 100%
[8]
  residual activity: 88%
[9]
  residual activity: 87%
[10]
  residual activity: 71%
[11]
  residual activity: 95%
[12]
  residual activity: 94%
[13]
  residual activity: 89%
[14]
  residual activity: 96%
[15]
  residual activity: 82%
[16]
  residual activity: 100%
[17]
  residual activity: 100%
[18]
  residual activity: 87%
[19]
  residual activity: 100%
[20]
  residual activity: 95%
[21]
  residual activity: 100%
[22]
  residual activity: 73%
[23]
  residual activity: 82%
[24]
  residual activity: 94%
[25]
  residual activity: 88%
[26]
  residual activity: 100%
[27]
  residual activity: 91%
[28]
  residual activity: 71%
[29]
  residual activity: 100%
[30]
  residual activity: 92%
[31]
  residual activity: 86%
[32]
  residual activity: 79%
[33]
  residual activity: 84%
[34]
  residual activity: 88%
[35]
  residual activity: 88%
[36]
  residual activity: 100%
[37]
  residual activity: 81%
D(3) dopamine receptor
  inhibition: 1.52%
[38]
  inhibition: 63.9%

## CNC(=O)Nc1ccc2c(c1)[C@@]1(CC2)OC(=O)N(CC(=O)N(Cc2ccc(F)cc2)[C@@H](C)C(F)(F)F)C1=O [A-486]
[1]
  inhibition: 21%
[2]
  inhibition: 41%
[3]
  inhibition: -8%
[4]
  inhibition: -9%
[5]
  residual activity: 78%
[6]
  residual activity: 90%
[7]
  residual activity: 83%
[8]
  residual activity: 100%
[9]
  residual activity: 100%
[10]
  residual activity: 100%
[11]
  residual activity: 100%
[12]
  residual activity: 100%
[13]
  residual activity: 86%
[14]
  residual activity: 0%
[15]
  residual activity: 92%
[16]
  residual activity: 98%
[17]
  residual activity: 96%
[18]
  residual activity: 87%
[19]
  residual activity: 100%
[20]
  residual activity: 78%
[21]
  residual activity: 100%
[22]
  residual activity: 67%
[23]
  residual activity: 100%
[24]
  residual activity: 100%
[25]
  residual activity: 98%
[26]
  residual activity: 87%
[27]
  residual activity: 92%
[28]
  residual activity: 89%
[29]
  residual activity: 100%
[30]
  residual activity: 100%
[31]
  residual activity: 90%
[32]
  residual activity: 75%
[33]
  residual activity: 99%
[34]
  residual activity: 100%
[35]
  residual activity: 100%
[36]
  residual activity: 100%
[37]
  residual activity: 70%
D(3) dopamine receptor
  inhibition: 57.8%
[38]
  inhibition: -6.45%
